# The NIST ThermoML archive (doi:10.1016/j.jct.2015.05.002)
# Numbers after ± are expanded uncertainties.
# Assay: mn = molality of the nth substance listed, in mol/kg
# Settings: 101.3 kPa, Liquid; for speed of sound: Frequency=3 MHz, Sing-around technique in a fixed-path interferometer; for mass density: Vibrating tube method
structure (smiles),measurement,setting,value
O=C[O-].[NH3+]CCCO [3-hydroxypropylammonium formate] + O,speed of sound,"293.15 K, m1 = 0.1",1489.6 ± 2.7 m/s
same,speed of sound,"293.15 K, m1 = 0.21",1496.4 ± 2.7 m/s
same,speed of sound,"293.15 K, m1 = 0.3",1502.6 ± 2.7 m/s
same,speed of sound,"293.15 K, m1 = 0.42",1510.7 ± 2.7 m/s
same,mass density,"293.15 K, m1 = 0.1",999.816 ± 0.65 kg/m3
same,mass density,"293.15 K, m1 = 0.21",1001.61 ± 0.65 kg/m3
same,mass density,"293.15 K, m1 = 0.3",1003.08 ± 0.65 kg/m3
same,mass density,"293.15 K, m1 = 0.42",1005.09 ± 0.66 kg/m3
same,speed of sound,"298.15 K, m1 = 0.21",1508.3 ± 2.7 m/s
same,speed of sound,"298.15 K, m1 = 0.42",1520 ± 2.7 m/s
same,mass density,"298.15 K, m1 = 0.21",1000.35 ± 0.65 kg/m3
same,mass density,"298.15 K, m1 = 0.42",1003.64 ± 0.65 kg/m3
same,speed of sound,"303.15 K, m1 = 0.21",1519.6 ± 2.7 m/s
same,speed of sound,"303.15 K, m1 = 0.42",1530.5 ± 2.7 m/s
same,mass density,"303.15 K, m1 = 0.21",998.914 ± 0.65 kg/m3
same,mass density,"303.15 K, m1 = 0.42",1002.15 ± 0.65 kg/m3
same,speed of sound,"308.15 K, m1 = 0.21",1529.4 ± 2.7 m/s
same,speed of sound,"308.15 K, m1 = 0.42",1540.3 ± 2.7 m/s
same,mass density,"308.15 K, m1 = 0.21",997.259 ± 0.65 kg/m3
same,mass density,"308.15 K, m1 = 0.42",1000.45 ± 0.65 kg/m3
same,speed of sound,"313.15 K, m1 = 0.21",1538 ± 2.7 m/s
same,speed of sound,"313.15 K, m1 = 0.42",1547.9 ± 2.7 m/s
same,mass density,"313.15 K, m1 = 0.21",995.402 ± 0.64 kg/m3
same,mass density,"313.15 K, m1 = 0.42",998.562 ± 0.65 kg/m3
same,speed of sound,"318.15 K, m1 = 0.21",1545 ± 2.7 m/s
same,speed of sound,"318.15 K, m1 = 0.42",1554.3 ± 2.7 m/s
same,mass density,"318.15 K, m1 = 0.21",993.291 ± 0.64 kg/m3
same,mass density,"318.15 K, m1 = 0.42",996.504 ± 0.64 kg/m3
